Patent US20070213291A1, “Therapeutically useful synthetic oligonucleotides” (priority 1999, published 2007)
Values joined by “and” are separate entries in the source; they are usually repeats but may differ in a detail not shown here. Equal values may be shown once.

Tests used:
Format in all cases: cell-based
[1] = test system: A20 murine B leukemia cells; assay: Inhibition of A20 cell proliferation (MTT); conditions: 100 μg/ml, 48 h
Description: (§1) Cells were seeded in 6 (1 ml/well), 24 (0.5 ml/well) or 96 (0.1 ml/well) well flat-bottom microplates and were maintained at 37° C. in a 5% CO2 atmosphere. Unless stated otherwise, 2.5×10^5 cells/ml were incubated with 0 μg/ml (control) and 100 μg/ml (treated) of 2 to 45 base sequences containing A, C, G and T for 48 h.
(§2) Cell proliferation was measured using dimethylthiazol-diphenyl-tetrazolium (MTT) reduction (Mosman et al. J. Immunol. Methods 65:55, 1983). MTT was measured at a wavelength of 570 nm using a multiplate spectrophotometer reader (ELX800, Bio-TEK Instruments Inc., Winooski, Vt.).
A20 murine leukemia B cells are a suspension tumor model. A20 murine leukemia B cells were incubated with 6 base GT sequences (Table 19).

[2] = test system: Jurkat human leukemia T cells; assay: Cell cycle stage in Jurkat cells (propidium iodide flow cytometry); conditions: 24 h
How it was run: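 Exponentially growing Jurkat cells were exposed for 24 h to 2–45-base A/C/G/T oligonucleotides, or at 1×10^6 cells/ml to 6-base GT and AC strands, alone (heated 10 min, 65 °C) or hybridized 1:1. Detergent-, trypsin-, RNase- and spermine-treated nuclei were propidium iodide-stained and scored for G0/G1, early/mid/late S and G2/M by doublet-discriminating flow cytometry.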

[3] = test system: chimpanzee PBMCs; assay: Cytokine production by chimpanzee PBMC (ELISA); conditions: PBMC of 4 healthy chimpanzees, 100 μg/ml, 48 h
How it was run: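 PBMCs from 4 healthy chimpanzees (1×10^6 cells) were incubated 48 h at 37 °C, 5% CO2 with 100 μg/ml of each 6-base sequence. Supernatant IL-10, IL-12 (p70 plus free p40) and TNF-alpha were measured by ELISA. Values are fold increase over untreated control cells.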

[4] = test system: Jurkat human leukemia T cells; assay: Inhibition of Jurkat human leukemia T cell proliferation (MTT reduction); conditions: for % INHIBITION of Jurkat proliferation at suboptimal concentration: 5.0 μg/ml of each 6 base sequence, alone or two together; for % INHIBITION of Jurkat human leukemia T cell proliferation: 100 μg/ml sequence, 48 h, 2.5×10^5 cells/ml
How it was run: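 Jurkat cells at 2.5×10^5 cells/ml exposed to 100 μg/ml of 2–45-base A/C/G/T sequences (0 μg/ml control) for 48 h, 37° C, 5% CO2. Viability by MTT reduction read at 570 nm.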

[5] = test system: THP-1 human acute monocytic leukemia cells; assay: Inhibition of THP-1 cell proliferation (MTT); conditions: 100 μg/ml, 48 h, 1.6×10^6 cells/ml
Description: as §1, §2
THP-1 acute monocytic leukemia cells are a p53 null human suspension tumor model. THP-1 cells (1.6×10^6 cells/ml) were incubated with 6 base GT sequences (Table 10).

[6] = test system: rhesus monkey PBMCs; assay: Cytokine production by rhesus monkey PBMC (ELISA); conditions: PBMC of 4 healthy rhesus monkeys, 100 μg/ml, 48 h
How it was run: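 Peripheral blood mononuclear cells taken from 4 healthy rhesus monkeys were cultured at 1×10^6 cells with 100 μg/ml of each test sequence for 48 h at 37° C. under 5% CO2. Cytokine levels in 100 μl of supernatant were quantified in pg/ml by commercial ELISA and reported as fold increase over untreated control cells.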

[7] = test system: HL-60 human promyelocytic leukemia cells; assay: Inhibition of HL-60 cell proliferation (MTT); conditions: 100 μg/ml, 48 h
Description: as §1, §2
HL-60 promyelocytic leukemia cells are a p53 mutated human suspension tumor model. HL-60 cells were incubated with 6 base GT sequences (Table 6).

[8] = test system: Jurkat human leukemia T cells; assay: Apoptosis by phosphatidylserine/annexin V-FITC flow cytometry; conditions: 50 μM sequence
How it was run: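 Jurkat cells were exposed to 3–7-base oligonucleotides (GT, ACGT, AG, GG, AGT, CGT sequences) at 50 μM. Separately, 6-base GT and complementary AC sequences, alone or hybridized 1:1 (10 min, 65 °C), were applied for 24 h. Phosphatidylserine exposure was quantified by flow cytometry with FITC-annexin V.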

[9] = Jurkat 1×10^6 cells/ml, sequences heated 10 minutes at 65° C.

Question: Which results are given for GGGTGG [SEQ ID NO:25]?
Answer: % INHIBITION of A20 murine B leukemia cell proliferation [1]: 11%; % cells in phase: G0/G1 [2, 9]: 28.0%; % cells in phase: G2/M [2, 9]: 0.9%; % cells in phase: SE [2, 9]: 45.8%; % cells in phase: SL [2, 9]: 11.3%; % cells in phase: SM [2, 9]: 14.0%; Arrest (cell cycle) [2, 9]: induced arrest at the end of the SE phase of the cell cycle; % of cells in phase: G0/G1 ([2]; Jurkat, 100 μg/ml): 28.5%; % of cells in phase: G2/M ([2]; Jurkat, 100 μg/ml): 0.0%; % of cells in phase: SE ([2]; Jurkat, 100 μg/ml): 46.3%; % of cells in phase: SL ([2]; Jurkat, 100 μg/ml): 10.7%; % of cells in phase: SM ([2]; Jurkat, 100 μg/ml): 14.6%; Arrest (cell cycle) ([2]; Jurkat, 100 μg/ml): End SE; IL-10 fold increase: mean +/− SD [3]: 2.5 +/− 1.5 fold increase; IL-12 fold increase: mean +/− SD [3]: 13.5 +/− 8.4 fold increase; TNF-alpha fold increase: mean +/− SD [3]: 11.7 +/− 6.7 fold increase; % INHIBITION of Jurkat proliferation at suboptimal concentration [4]: 5%; % INHIBITION of Jurkat human leukemia T cell proliferation [4]: 60%; % INHIBITION of Jurkat proliferation, 5-Fluorouracil 0.1 μg/ml ([4]; 5-fluorouracil 0.1 μg/ml, alone or with sequence at 1.0 μg/ml): 10%; % INHIBITION of Jurkat proliferation, 5-Fluorouracil 1.0 μg/ml ([4]; 5-fluorouracil 1.0 μg/ml, alone or with sequence at 1.0 μg/ml): 21%; % INHIBITION of Jurkat proliferation, 5-Fluorouracil 10.0 μg/ml ([4]; 5-fluorouracil 10.0 μg/ml, alone or with sequence at 1.0 μg/ml): 40%; relative potency versus AGT SEQ ID NO:49 ([4]; Jurkat proliferation, PHARM/PCS-4 Software): 3.4 times; % INHIBITION of Jurkat proliferation, Cisplatin 0.1 μg/ml ([4]; cisplatin 0.1 μg/ml, alone or with sequence at 1.0 μg/ml): 14%; % INHIBITION of Jurkat proliferation, Cisplatin 1.0 μg/ml ([4]; cisplatin 1.0 μg/ml, alone or with sequence at 1.0 μg/ml): 38%; % INHIBITION of Jurkat proliferation, Cisplatin 10.0 μg/ml ([4]; cisplatin 10.0 μg/ml, alone or with sequence at 1.0 μg/ml): 76%; potentiation of antineoplastic effect of 5-fluorouracil on Jurkat T cell proliferation ([4]; sequence 1.0 μg/ml, 0.1 and 1.0 μg/ml 5-fluorouracil): potentiated; potentiation of antineoplastic effect of cisplatin on Jurkat T cell proliferation ([4]; sequence 1.0 μg/ml, 0.1 and 1.0 μg/ml cisplatin): potentiated; % INHIBITION of Jurkat proliferation, 5-Fluorouracil 0.0 μg/ml ([4]; sequence at 1.0 μg/ml, 5-fluorouracil 0.0 μg/ml): 0%; % INHIBITION of Jurkat proliferation, Cisplatin 0.0 μg/ml ([4]; sequence at 1.0 μg/ml, cisplatin 0.0 μg/ml): 0%; % INHIBITION of THP-1 human acute monocytic leukemia cell proliferation [5]: 15%; IL-10 fold increase: mean +/− SD [6]: 1.0 +/− 0.1 fold increase; IL-12 fold increase: mean +/− SD [6]: 10.6 +/− 4.7 fold increase; TNF-alpha fold increase: mean +/− SD [6]: 12.5 +/− 5.2 fold increase; % INHIBITION of HL-60 human promyelocytic leukemia cell proliferation [7]: 35%; % of cells in apoptosis (positive for PS/A-V staining) [8]: 27%

Question: Which “% INHIBITION of A20 murine B leukemia cell proliferation” value [1] does the source give for GTGTGT [SEQ ID NO:10] here?
Answer: The value was 9%.

Question: What about the “% of cells in phase: G0/G1” value ([2]; Jurkat, 100 μg/ml) of the same sequence?
Answer: The value was 30.8%.

Question: And the “% of cells in phase: G2/M” value ([2]; Jurkat, 100 μg/ml)?
Answer: The value was 0.3%.

Question: What about the “% of cells in phase: SE” value ([2]; Jurkat, 100 μg/ml) of the same sequence?
Answer: The value was 41.9%.

Question: And the “% of cells in phase: SL” value ([2]; Jurkat, 100 μg/ml)?
Answer: Its value is 10.2%.

Question: What about the “% of cells in phase: SM” value ([2]; Jurkat, 100 μg/ml) of the same sequence?
Answer: Its value is 16.8%.

Question: What about the “Arrest (cell cycle)” value ([2]; Jurkat, 100 μg/ml) of the same sequence?
Answer: The value was “End SE”.

Question: And the “IL-10 fold increase: mean +/− SD” value [3]?
Answer: Its value is 4.0 +/− 2.1 fold increase.

Question: What about the “IL-12 fold increase: mean +/− SD” value [3] of the same sequence?
Answer: The value was 14.0 +/− 8.5 fold increase.

Question: And the “TNF-alpha fold increase: mean +/− SD” value [3]?
Answer: Its value is 12.9 +/− 6.4 fold increase.

Question: And the “% INHIBITION of Jurkat proliferation at suboptimal concentration” value [4]?
Answer: The value was 2%.

Question: What about the “% INHIBITION of Jurkat human leukemia T cell proliferation” value [4] of the same sequence?
Answer: The value was 44% and 48%.

Question: And the “% INHIBITION of THP-1 human acute monocytic leukemia cell proliferation” value [5]?
Answer: Its value is 11%.

Question: What about the “IL-10 fold increase: mean +/− SD” value [6] of the same sequence?
Answer: Its value is 1.3 +/− 0.1 fold increase.

Question: What about the “IL-12 fold increase: mean +/− SD” value [6] of the same sequence?
Answer: Its value is 10.7 +/− 4.1 fold increase.

Question: And the “TNF-alpha fold increase: mean +/− SD” value [6]?
Answer: The value was 16.1 +/− 4.2 fold increase.

Question: What about the “% INHIBITION of HL-60 human promyelocytic leukemia cell proliferation” value [7] of the same sequence?
Answer: Its value is 13%.

Question: And the “% of cells in apoptosis (positive for PS/A-V staining)” value [8]?
Answer: The value was 33%.

Question: How did the “% INHIBITION of A20 murine B leukemia cell proliferation” value [1] turn out when TTGTTT [SEQ ID NO:26] was run?
Answer: Its value is 15%.

Question: And the “% of cells in phase: G0/G1” value ([2]; Jurkat, 100 μg/ml)?
Answer: The value was 32.6%.

Question: And the “% of cells in phase: G2/M” value ([2]; Jurkat, 100 μg/ml)?
Answer: The value was 32.4%.

Question: What about the “% of cells in phase: SE” value ([2]; Jurkat, 100 μg/ml) of the same sequence?
Answer: Its value is 11.5%.

Question: What about the “% of cells in phase: SL” value ([2]; Jurkat, 100 μg/ml) of the same sequence?
Answer: Its value is 10.7%.

Question: What about the “% of cells in phase: SM” value ([2]; Jurkat, 100 μg/ml) of the same sequence?
Answer: Its value is 12.8%.

Question: And the “Arrest (cell cycle)” value ([2]; Jurkat, 100 μg/ml)?
Answer: Its value is “END G2/M”.

Question: And the “IL-10 fold increase: mean +/− SD” value [3]?
Answer: Its value is 1.4 +/− 0.9 fold increase.

Question: What about the “IL-12 fold increase: mean +/− SD” value [3] of the same sequence?
Answer: The value was 12.3 +/− 8.5 fold increase.

Question: And the “TNF-alpha fold increase: mean +/− SD” value [3]?
Answer: Its value is 7.5 +/− 4.6 fold increase.

Question: What about the “% INHIBITION of Jurkat proliferation at suboptimal concentration” value [4] of the same sequence?
Answer: The value was −2%.

Question: What about the “% INHIBITION of Jurkat human leukemia T cell proliferation” value [4] of the same sequence?
Answer: The value was 34%.

Question: And the “% INHIBITION of THP-1 human acute monocytic leukemia cell proliferation” value [5]?
Answer: Its value is 1%.

Question: And the “IL-10 fold increase: mean +/− SD” value [6]?
Answer: The value was 1.0 +/− 0.1 fold increase.

Question: What about the “TNF-alpha fold increase: mean +/− SD” value [6] of the same sequence?
Answer: Its value is 2.1 +/− 1.0 fold increase.

Question: What about the “% INHIBITION of HL-60 human promyelocytic leukemia cell proliferation” value [7] of the same sequence?
Answer: The value was 16%.

Question: What about the “% of cells in apoptosis (positive for PS/A-V staining)” value [8] of the same sequence?
Answer: The value was 14%.
